#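 Following 48 hours of exposure in 96-well plates, responses at five concentrations were used to interpolate endpoints linearly. At the GI50, growth is halved.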 Calls of active or inactive are those of the source. Cut-off read from the data, not from the text of the source: active = GI50 up to about 1.1 µM and inactive = higher.
# How the values were obtained:
# Experiment in all cases: DTP human tumour cell line panel, 48 h
# SW-620 = system: SW-620
# Hs-578T = system: Hs-578T
# OVCAR-5 = system: OVCAR-5
# SF-295 = system: SF-295
# K562 = system: K562
# ACHN = system: ACHN
# HCT-116 = system: HCT-116
# MOLT-4 = system: MOLT-4
# 786-0 = system: 786-0
# OVCAR-3 = system: OVCAR-3
# TK-10 = system: TK-10
# NCI-H522 = system: NCI-H522
# Malme-3M = system: Malme-3M
# RPMI-8226 = system: RPMI-8226
# U-251 = system: U-251
# EKVX = system: EKVX
# HCC 2998 = system: HCC 2998
# HOP-92 = system: HOP-92
# M14 = system: M14
# SF-539 = system: SF-539
Compound,GI50 (SW-620),GI50 (Hs-578T),GI50 (OVCAR-5),GI50 (SF-295),GI50 (K562),GI50 (ACHN),GI50 (HCT-116),GI50 (MOLT-4),GI50 (786-0),GI50 (OVCAR-3),GI50 (TK-10),GI50 (NCI-H522),GI50 (Malme-3M),GI50 (RPMI-8226),GI50 (U-251),GI50 (EKVX),GI50 (HCC 2998),GI50 (HOP-92),GI50 (M14),GI50 (SF-539)
CCCC1CC(=O)NC(=O)C1C(=O)OC(C)(C)C (stereo not given),> 100 µM (inactive),> 100 µM (inactive),> 100 µM (inactive),> 100 µM (inactive),> 100 µM (inactive),> 100 µM (inactive),> 100 µM (inactive),> 100 µM (inactive),> 100 µM (inactive),> 100 µM (inactive),> 100 µM (inactive),> 100 µM (inactive),> 100 µM (inactive),> 100 µM (inactive),> 100 µM (inactive),> 100 µM (inactive),> 100 µM (inactive),–,–,–
N#Cc1nc(/C=C/c2cccs2)oc1N,> 100 µM (inactive),> 100 µM (inactive),> 100 µM (inactive),–,82.4 µM (inactive),76.9 µM (inactive),> 100 µM (inactive),45 µM (inactive),> 100 µM (inactive),–,61.4 µM (inactive),–,–,27.8 µM (inactive),95.3 µM (inactive),33.7 µM (inactive),–,35.8 µM (inactive),97.5 µM (inactive),–
O=C1c2sc(-c3ccc(Cl)cc3)cc2-n2cccc21,> 100 µM (inactive),> 100 µM (inactive),> 100 µM (inactive),> 100 µM (inactive),> 100 µM (inactive),> 100 µM (inactive),> 100 µM (inactive),> 100 µM (inactive),> 100 µM (inactive),> 100 µM (inactive),> 100 µM (inactive),> 100 µM (inactive),> 100 µM (inactive),> 100 µM (inactive),> 100 µM (inactive),> 100 µM (inactive),> 100 µM (inactive),–,> 100 µM (inactive),–
C=C(C)C1Cc2c(cc3c(c2O)c(=O)c2ccccc2n3C)O1 (stereo not given),1.81 µM (inactive),6.3 µM (inactive),13.3 µM (inactive),5.78 µM (inactive),1.79 µM (inactive),5.14 µM (inactive),2.03 µM (inactive),0.372 µM (active),1.51 µM (inactive),12.6 µM (inactive),13.9 µM (inactive),–,1.63 µM (inactive),2.06 µM (inactive),3.33 µM (inactive),17.5 µM (inactive),12.1 µM (inactive),7.67 µM (inactive),3 µM (inactive),2.4 µM (inactive)
CCCCC/C=C\C=C1\C(=O)C=C[C@@H]1C/C=C\CCCC(=O)O,2.8 µM (inactive),2.47 µM (inactive),3.41 µM (inactive),3.87 µM (inactive),1.62 µM (inactive),2.72 µM (inactive),1.23 µM (inactive),2.25 µM (inactive),3.21 µM (inactive),2.9 µM (inactive),8.43 µM (inactive),–,10.2 µM (inactive),1.38 µM (inactive),2.48 µM (inactive),1.9 µM (inactive),–,–,6.85 µM (inactive),5.82 µM (inactive)
COC(=O)/C1=C/c2c([nH]c3ccccc23)/C(C(=O)OC)=C\c2c1[nH]c1ccccc21 [CAULERPIN],34.4 µM (inactive),16.8 µM (inactive),> 50 µM (inactive),40.3 µM (inactive),–,22.2 µM (inactive),14.2 µM (inactive),–,11.2 µM (inactive),24.8 µM (inactive),32.6 µM (inactive),6.08 µM (inactive),12.9 µM (inactive),–,19.5 µM (inactive),> 50 µM (inactive),–,–,25.2 µM (inactive),33.5 µM (inactive)

# From ChEMBL document CHEMBL1201862, “PubChem BioAssay data set” (2004)
